Results: article PMC11123956, “Nobiletin Stimulates Adrenal Hormones and Modulates the Circadian Clock in Mice” (Nutrients, 2024)

How the values were obtained:
[1] = system: serum adrenaline; assay: Serum adrenaline ELISA after i.p. injection; format: in vivo, mice; settings: intraperitoneal injection, 100 mg/kg
Experimental: Male C57BL/6J mice (7 weeks old) were purchased from Charles River Japan (Kanagawa, Japan) and used for the serum hormone assay and RT-PCR. Male ICR mice were purchased from Tokyo Laboratory Animals Science Co., Ltd. (Tokyo, Japan), and female PERIOD2::LUCIFERASE (PER2::LUC) knock-in mice (ICR background) bred at Waseda University were used for blood glucose measurements and in vivo imaging assays, respectively. The mice were all housed under conditions of controlled temperature (23 °C ± 3 °C), humidity (50% ± 20%), and lighting (lights on from 07:00 to 19:00 at Taisho Pharmaceutical Co., Ltd. or from 08:00 to 20:00 at Waseda University). In the 24 h cycle, Zeitgeber time 0 (ZT0) was designated as the time when the lights were turned on, and ZT12 was designated as the time when the lights were turned off. […]
Serum corticosterone, adrenaline, and adreno-corticotropic hormone (ACTH) levels, and corticotropin releasing factor (CRF) in the hypothalamus, were measured using enzyme-linked immunosorbent assay (ELISA). […] Blood glucose levels were measured using a Glucose PILOT kit (Aventir Biotech, LLC, Carlsbad, CA, USA). The range of blood glucose that could be precisely measured with the kit was 20–600 mg/dL. […]

[2] = system: Bmal1 mRNA; assay: Real-time RT-PCR of Bmal1 mRNA in peripheral tissues; format: in vivo, mice; settings: after a single treatment
Experimental: Male C57BL/6J mice (7 weeks old) were purchased from Charles River Japan (Kanagawa, Japan) and used for the serum hormone assay and RT-PCR. Male ICR mice were purchased from Tokyo Laboratory Animals Science Co., Ltd. (Tokyo, Japan), and female PERIOD2::LUCIFERASE (PER2::LUC) knock-in mice (ICR background) bred at Waseda University were used for blood glucose measurements and in vivo imaging assays, respectively. The mice were all housed under conditions of controlled temperature (23 °C ± 3 °C), humidity (50% ± 20%), and lighting (lights on from 07:00 to 19:00 at Taisho Pharmaceutical Co., Ltd. or from 08:00 to 20:00 at Waseda University). In the 24 h cycle, Zeitgeber time 0 (ZT0) was designated as the time when the lights were turned on, and ZT12 was designated as the time when the lights were turned off. All the mice were given access to food and tap water ad libitum, and nobiletin (10–100 mg/kg; purchased from FUJIFILM Wako Pure Chemical Corporation, Osaka, Japan) was administered by intraperitoneal (i.p.) injection in the vehicle (10 mL/kg body weight) containing 0.5% carboxymethyl cellulose (CMC). Rolipram (PDE4 inhibitor, FUJIFILM Wako Pure Chemical Corporation) and SR1078 (RORα/γ agonist, FUJIFILM Wako Pure Chemical Corporation) were also used for the experiment at 10 mg/kg in 0.5% CMC [12]. Mice were euthanized by rapid decapitation for whole blood samples.
Figure 3 Nobiletin stimulated adrenaline and corticosterone secretion, and induced acute clock gene expression changes. (A–C) Mice received intraperitoneal injections of control (0.5% CMC) or nobiletin (10 or 100 mg/kg) at ZT3. (A) Serum corticosterone at 1 h after treatment (n = 6 in each). $$$ p < 0.001 by Tukey’s multiple comparisons test. (B) Serum corticosterone and adrenaline at 1, 2, and 4 h after treatment (n = 4 in each). # p < 0.05 vs. control at each time point by Mann–Whitney test; ** p < 0.01 vs. control at each time point by Student’s t-test. (C) Blood glucose changes after treatment (n = 9 in each). Statistics of 2-way repeated ANOVA are indicated on the graph. […]

## COc1ccc(-c2cc(=O)c3c(OC)c(OC)c(OC)c(OC)c3o2)cc1OC [nobiletin]
[1]
  adrenaline secretion: significantly and potently stimulated
[2]
  Bmal1 expression: did not change significantly
